The values below come from patent US20210171948A1, “COMPOSITIONS AND METHODS FOR TARGETING GLYPICAN-2 IN THE TREATMENT OF CANCER” (Shepherd Therapeutics, Inc., priority 2019, published 2021).

What is called IC50 is the concentration needed to halve the response being measured.

The test system of one data set is KELLY cells. The data set is described as follows: Etoposide IC50 in siRNA-transfected cells, Cell Titer Glo 2.0 viability (Example 9). It is filed as cell-based. On the procedure:
(§1) GPC2 mRNA expression was reduced and changes in cell viability were assessed in multiple neuroblastoma cell lines. Cells were transfected with either a control siRNA or with GPC2 siRNA sequences 3, 5 or 7 from Table 7 using the RNAiMAX Lipofectamine kit (Invitrogen, Carlsbad, Calif.) as previously described in 96 wells for viability assays. Etoposide was added at increasing concentrations (0-15 uM) to transfected cells at 24 hours post transfection. Following a 72 hour incubation period, viability measurement were made using Cell Titer Glo 2.0.

The subject of data set [1] is SKNAS cells. Described as above. It is filed as cell-based. On the procedure:
as §1

In the next data set the test system is CHLA-172 cells. The description is as above. It is filed as cell-based. On the procedure:
as §1

For data set [2], the system named is CHLA-136 cells. Described as above. It is filed as cell-based. As for the experimental part: as §1
A further data set relates to SNU16 cells. The data set is described as follows: Cisplatin IC50 in siRNA-transfected cells, Cell Titer Glo 2.0 viability (Example 5). Format: cell-based. On the procedure: (§2) GPC2 mRNA was reduced using the indicated siRNAs and changes in cell viability were assessed in multiple cancer cell lines, in combination with Cisplatin treatment. Cells were transfected with either a scrambled control siRNA or with GPC2 siRNA sequences 3 or 5 from Table 7 using the RNAiMAX Lipofectamine kit (Invitrogen, Carlsbad, Calif.), as previously described, in either in 96 well (for viability assays) or 6 well format (for total RNA). Cisplatin was added at increasing concentrations (0 to 30 uM) to transfected cells at 24 hours post transfection. Following a 72 hour incubation period, cell viability was measured using Cell Titer Glo 2.0. Total RNA samples were also isolated to measure knockdown efficiency.
(ATP-based viability assays read luminescence as a measure of living cells.)

The test system of another data set is TC32 cells. Described as above. Format: cell-based. As for the experimental part: as §2
Data set [3] deals with SKNAS cells. The data set is described as above. It is filed as cell-based. On the procedure:
as §2

The subject of another data set is SH-SY5Y cells. Described as above. Conditions: SH-SY5Y cells transfected with the labelled siRNA; cisplatin added 24 hours post transfection, 72 hour incubation. Format: cell-based. As for the experimental part:
as §2

The test system of another data set is CHP212 cells. Described as above. It is filed as cell-based. On the procedure:
as §2

In another data set the test system is TC71 cells. The data set is described as above. It is filed as cell-based. As for the experimental part: as §2
For a further data set, the system named is GPC2 mRNA. The data set is described as follows: GPC2 mRNA knockdown in multiple cancer cell lines, 96 hour (Example 3). It is filed as cell-based, human. Conditions: 96 hour incubation. As for the experimental part:
siRNAs 1-5 from Table 7 were diluted to 40 nM in OptiMEM media and mixed in a 1:3 ratio (weight by volume) with RNAiMAX. This was incubated for 15 minutes at room temperature and dispensed onto cells plated in a 6 well tissue culture plate. Total RNA samples were collected at either 72 hours post transfection to compare knockdown efficiency (FIG. 2A), or at 24, 48, 72 or 96 hours post transfection to determine the extent of GPC2 mRNA knockdown over time (FIG. 2B). Expression levels of mRNA of GPC2 were measured in these samples using primers specific for GPC2 obtained commercially from Thermofisher (Carlsbad, Calif.) and standard qPCR technique.
GPC2 mRNA knockdown and changes in cell viability were assessed in multiple cancer cell lines. Cells were transfected with either a scrambled control siRNA or with GPC2 siRNA sequence 3 or sequence 5 from Table 7 using the RNAiMAX Lipofectamine kit (Invitrogen, Carlsbad, Calif.) as previously described in Example 2, either in 96 well format (for viability assays) or 6 well format (for knockdown assessment). Following a 96 hour incubation period, cells were washed and the viability measurement was assessed using Cell Titer Glo 2.0. Total RNA was isolated from the 6 well plate samples to determine knockdown efficiency.

Data set [4] relates to SKNAS cells. The data set is described as follows: Doxorubicin IC50 in siRNA-transfected cells, Cell Titer Glo viability (Example 8). Format: cell-based. On the procedure: (§3) GPC2 mRNA expression was reduced and changes in cell viability were assessed in multiple neuroblastoma cell lines. Cells were transfected with either a control siRNA or with GPC-2 siRNA sequences 3, 5 or 7 from Table 7 using the RNAiMAX Lipofectamine kit (Invitrogen, Carlsbad, Calif.) as previously described in 96 wells for viability assays. Doxorubicin was added at increasing concentrations (0-5 uM) to transfected cells at 24 hours post transfection. Following a 72 hour incubation period, viability measurements were made using Cell Titer Glo.

Data set [5] has as its system CHLA-136 cells. Described as above. The conditions noted are these: CHLA-136 cells transfected with the labelled siRNA; doxorubicin added 24 hours post transfection, 72 hour incubation. Format: cell-based. As for the experimental part: as §3
The subject of another data set is GPC2 protein. The data set is described as follows: GPC2 protein expression by flow cytometry of immunostained cells after siRNA transfection. Format: cell-based, human. As for the experimental part: The extent of GPC2 mRNA reduction (knockdown) and corresponding protein level expression changes were assessed in three neuroblastoma cell lines following siRNA knockdown of GPC2. The CHP212 neuroblastoma cell line (FIG. 5A and FIG. 5D), the SH-SY5Y neuroblastoma cell line (FIG. 5B and FIG. 5E) and the CHLA90 neuroblastoma cell line (FIG. 5C and FIG. 5F) were transfected with GPC2 siRNA sequences 5 and 7 from Table 7 and a scrambled control siRNA using the RNAiMAX Lipofectamine kit (Invitrogen, Carlsbad, Calif.) as previously described. Following a 24, 48, or 72 hour incubation period, cells were washed and total RNA was isolated for measuring GPC2 mRNA expression. For protein analysis, cells were fixed, immunostained using an antibody against GPC2 protein, protein expression was measured via flow cytometry. As shown, GPC2 mRNA knockdown was observed beginning at the 24 hr time point and lasted for at least 72 hours. GPC2 protein expression started to decrease at the 48 hr time point.

Strand notation (5' to 3'): a small letter for the sugar, then the base; units joined by * are phosphorothioate-linked, units joined directly phosphodiester-linked; [ ] holds rarer units or linkages, { } end groups; capitals alone tell only the bases. d = 2'-deoxy (DNA); r = 2'-OH (RNA)

Regarding “GPC2 siRNA 3: siRNA duplex: sense CCUGCUUGGACCUCGAUAA[dT][dT] (SEQ ID NO: 207), anti-sense UUAUCGAGGUCCAAGCAGG[dT][dT] (SEQ ID NO: 208) (sense CCUGCUUGGACCUCGAUAANN; antisense UUAUCGAGGUCCAAGCAGGNN; 3' dTdT overhangs, chemistry not fully specified; listed as Homo sapiens)”, the “Data Summary: effect of knockdown on sensitivity to etoposide” value in the data set on KELLY cells (KELLY), with SKNAS cells [1] (SKNAS), with CHLA-172 cells (CHLA-172) and with CHLA-136 cells [2] (CHLA-136) was “increases sensitivity to etoposide” throughout. The IC50 with KELLY cells (KELLY cells transfected with the labelled siRNA, etoposide added 24 hours post transfection, 72 hour incubation) turned out to be 70 nM; with SKNAS cells [1] (SKNAS cells transfected with the labelled siRNA, etoposide added 24 hours post transfection, 72 hour incubation) it was 40 nM; in the data set on CHLA-172 cells (CHLA-172 cells transfected with the labelled siRNA, etoposide added 24 hours post transfection, 72 hour incubation), 2000 nM; in the data set with CHLA-136 cells [2] (CHLA-136 cells transfected with the labelled siRNA, etoposide added 24 hours post transfection, 72 hour incubation), 170 nM; with SNU16 cells (SNU16 cells transfected with the labelled siRNA, cisplatin added 24 hours post transfection, 72 hour incubation), 16000 nM; in the data set with TC32 cells (TC32 cells transfected with the labelled siRNA, cisplatin added 24 hours post transfection, 72 hour incubation) it was 2300 nM. The IC50 with SKNAS cells [3] (SKNAS cells transfected with the labelled siRNA, cisplatin added 24 hours post transfection, 72 hour incubation) is 20000 nM; in the data set on SH-SY5Y cells, 17600 nM; with CHP212 cells (CHP212 cells transfected with the labelled siRNA, cisplatin added 24 hours post transfection, 72 hour incubation), 7400 nM; in the data set with TC71 cells (TC71 cells transfected with the labelled siRNA, cisplatin added 24 hours post transfection, 72 hour incubation), 1300 nM; in the data set with SKNAS cells [4] (SKNAS cells transfected with the labelled siRNA, doxorubicin added 24 hours post transfection, 72 hour incubation), 40 nM; in the data set with CHLA-136 cells [5], 170 nM. The “Data Summary: effect of knockdown on sensitivity to cisplatin” value in the data set on SNU16 cells (SNU16) is “does not increase”; in the data set with TC32 cells (TC32) it was “does not increase”; in the data set with SKNAS cells [3] (SKNAS) it was “increases sensitivity to”; in the data set with CHP212 cells (CHP212), “increases sensitivity to”; with TC71 cells (TC71) it was “does not increase”. For the same substance, the “% GPC2 knockdown” value amounted to 50% in the data set with GPC2 mRNA (CHP212 (Neuroblastoma)); 85% in the data set on GPC2 mRNA (COV362 (Ovarian Carcinoma)); 61% in the data set with GPC2 mRNA (GIST-T1 (Gastrointestinal Stromal)); 36% in the data set on GPC2 mRNA (IMR32 (Neuroblastoma)); 72% with GPC2 mRNA (MCF7 (Breast)); 78% in the data set with GPC2 mRNA (RH30 (Rhabdomyosarcoma)). The “% GPC2 knockdown” value in the data set with GPC2 mRNA (RH41 (Rhabdomyosarcoma)) is given as 37%; with GPC2 mRNA (SKNAS (Neuroblastoma)) it was 25%; in the data set with GPC2 mRNA (SNU16 (Gastric)) it was 53%; in the data set on GPC2 mRNA (TC32 (Ewing's Sarcoma)), 69%; in the data set on GPC2 mRNA (TC71 (Ewing's Sarcoma)) it was 42%; in the data set with GPC2 mRNA (TOV112D (Ovarian Carcinoma)), 89%. Moreover, the “GPC2 knockdown across the cell lines of Table 8” value in the data set on GPC2 mRNA (multiple cancer cell lines) is reported as “GPC2 knockdown was observed in each cell line”. Further, the “Data Summary: effect of knockdown on sensitivity to doxorubicin” value in the data set on SKNAS cells [4] (SKNAS) is “increases sensitivity to”.

In the case of “GPC2 siRNA 7: siRNA duplex: sense CUCCUUUCUGGUUCACACA[dT][dT] (SEQ ID NO: 215), anti-sense UGUGUGAACCAGAAAGGAG[dT][dT] (SEQ ID NO: 216) (sense rCrUrCrCrUrUrUrCrUrGrGrUrUrCrArCrArCrAdTdT; antisense rUrGrUrGrUrGrArArCrCrArGrArArArGrGrArGdTdT; listed as Homo sapiens)”, the “GPC2 protein expression (Mean Fluorescence (FL1) Intensity)” value with GPC2 protein (CHLA90 cells, at 72 hours (FIG. 5F)) is “Reduced GPC2 protein expression”; in the data set on GPC2 protein (CHP212 cells, at 48 and 72 hours (FIG. 5D)) it was “Reduced GPC2 protein expression”; in the data set with GPC2 protein (SH-SY5Y cells, at 48 and 72 hours (FIG. 5E)) it was “Reduced GPC2 protein expression”. Besides, the “Time point at which GPC2 protein expression started to decrease” value in the data set on GPC2 protein (CHP212, SH-SY5Y and CHLA90 neuroblastoma cell lines) turned out to be 48 h.
